Measurements from patent publication US20220046923A1, “HERBICIDAL CINNOLINIUM COMPOUNDS” (SYNGENTA CROP PROTECTION AG, priority 2018, published 2022).

Columns and labels:
Assay in all cases: Post-emergence efficacy, glasshouse spray test
Type in all cases: in vivo
[1] = system: Amaranthus palmeri (AMAPA); settings: Amaranthus palmeri, post-emergence, 312 h, evaluated after 13 days, read-out: Control of weed species AMAPA after post-emergence application (100=total damage to plant; 0=no damage to plant); for pest or weed control at 500 g/ha: application rate 500 g/Ha; for pest or weed control at 1000 g/ha: application rate 1000 g/Ha
In short: (§1)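 Seeds were sown in pots of standard soil and grown for 14 days under controlled glasshouse conditions. Seedlings were sprayed with the compound emulsified via acetone and IF50 and diluted in sodium lauryl ether sulphate (0.25% or 1%) with 1% ammonium sulphate. They were kept at 24/16 °C with 14 h light and 65% humidity and rated for damage on a 0–100 scale after 13 days.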

[2] = system: Chenopodium album (CHEAL); settings: Chenopodium album, post-emergence, 312 h, evaluated after 13 days, read-out: Control of weed species CHEAL after post-emergence application (100=total damage to plant; 0=no damage to plant); for pest or weed control at 500 g/ha: application rate 500 g/Ha; for pest or weed control at 1000 g/ha: application rate 1000 g/Ha
In short: as §1

[3] = system: Digitaria sanguinalis (DIGSA); settings: Digitaria sanguinalis, post-emergence, 312 h, evaluated after 13 days, read-out: Control of weed species DIGSA after post-emergence application (100=total damage to plant; 0=no damage to plant); for pest or weed control at 500 g/ha: application rate 500 g/Ha; for pest or weed control at 1000 g/ha: application rate 1000 g/Ha
In short: as §1

[4] = system: Echinochloa crus-galli (ECHCG); settings: Echinochloa crus-galli, post-emergence, 312 h, evaluated after 13 days, read-out: Control of weed species ECHCG after post-emergence application (100=total damage to plant; 0=no damage to plant); for pest or weed control at 500 g/ha: application rate 500 g/Ha; for pest or weed control at 1000 g/ha: application rate 1000 g/Ha
In short: as §1

Eleusine indica (ELEIN) = settings: Eleusine indica, post-emergence, 312 h, evaluated after 13 days, read-out: Control of weed species ELEIN after post-emergence application (100=total damage to plant; 0=no damage to plant); for pest or weed control at 500 g/ha: application rate 500 g/Ha; for pest or weed control at 1000 g/ha: application rate 1000 g/Ha
In short: as §1

[5] = system: Euphorbia heterophylla (EPHHL); settings: Euphorbia heterophylla, post-emergence, 312 h, evaluated after 13 days, read-out: Control of weed species EPHHL after post-emergence application (100=total damage to plant; 0=no damage to plant); for pest or weed control at 500 g/ha: application rate 500 g/Ha; for pest or weed control at 1000 g/ha: application rate 1000 g/Ha
In short: as §1

[6] = system: Ipomoea hederacea (IPOHE); settings: Ipomoea hederacea, post-emergence, 312 h, evaluated after 13 days, read-out: Control of weed species IPOHE after post-emergence application (100=total damage to plant; 0=no damage to plant); for pest or weed control at 500 g/ha: application rate 500 g/Ha; for pest or weed control at 1000 g/ha: application rate 1000 g/Ha
In short: as §1

Lolium perenne (LOLPE) = settings: Lolium perenne, post-emergence, 312 h, evaluated after 13 days, read-out: Control of weed species LOLPE after post-emergence application (100=total damage to plant; 0=no damage to plant); for pest or weed control at 500 g/ha: application rate 500 g/Ha; for pest or weed control at 1000 g/ha: application rate 1000 g/Ha
In short: as §1

Setaria faberi (SETFA) = settings: Setaria faberi, post-emergence, 312 h, evaluated after 13 days, read-out: Control of weed species SETFA after post-emergence application (100=total damage to plant; 0=no damage to plant); for pest or weed control at 500 g/ha: application rate 500 g/Ha; for pest or weed control at 1000 g/ha: application rate 1000 g/Ha
In short: as §1

O=S(=O)([O-])CC[n+]1ccc2cc(-c3ccccc3)ccc2n1 [Compound A53]
pest or weed control at 500 g/ha [1]: 20%
pest or weed control at 500 g/ha [2]: 0%
pest or weed control at 500 g/ha [3]: 10%
pest or weed control at 500 g/ha [4]: 0%
pest or weed control at 500 g/ha (Eleusine indica (ELEIN)): 40%
pest or weed control at 500 g/ha [5]: 20%
pest or weed control at 500 g/ha [6]: 10%
pest or weed control at 500 g/ha (Lolium perenne (LOLPE)): 0%
pest or weed control at 500 g/ha (Setaria faberi (SETFA)): 10%

Cc1c[n+](CC(=O)O)nc2ccccc12 [Compound A66]
pest or weed control at 1000 g/ha [1]: 20%
pest or weed control at 1000 g/ha [2]: 60%
pest or weed control at 1000 g/ha [3]: 0%
pest or weed control at 1000 g/ha [4]: 0%
pest or weed control at 1000 g/ha (Eleusine indica (ELEIN)): 20%
pest or weed control at 1000 g/ha [5]: 20%
pest or weed control at 1000 g/ha [6]: 30%
pest or weed control at 1000 g/ha (Lolium perenne (LOLPE)): 0%
pest or weed control at 1000 g/ha (Setaria faberi (SETFA)): 0%

O=S(=O)([O-])NCC[n+]1ccc2ccccc2n1 [Compound A41]
pest or weed control at 1000 g/ha [1]: 100%
pest or weed control at 1000 g/ha [2]: 100%
pest or weed control at 1000 g/ha [3]: 80%
pest or weed control at 1000 g/ha [4]: 30%
pest or weed control at 1000 g/ha (Eleusine indica (ELEIN)): 100%
pest or weed control at 1000 g/ha [5]: 100%
pest or weed control at 1000 g/ha [6]: 80%
pest or weed control at 1000 g/ha (Lolium perenne (LOLPE)): 70%
pest or weed control at 1000 g/ha (Setaria faberi (SETFA)): 90%

COc1ccc2n[n+](CCS(=O)(=O)[O-])ccc2c1 [Compound A37]
pest or weed control at 1000 g/ha [1]: 0%
pest or weed control at 1000 g/ha [2]: 0%
pest or weed control at 1000 g/ha [3]: 60%
pest or weed control at 1000 g/ha [4]: 50%
pest or weed control at 1000 g/ha (Eleusine indica (ELEIN)): 60%
pest or weed control at 1000 g/ha [5]: 20%
pest or weed control at 1000 g/ha [6]: 10%
pest or weed control at 1000 g/ha (Lolium perenne (LOLPE)): 20%
pest or weed control at 1000 g/ha (Setaria faberi (SETFA)): 40%

C[C@H](C[n+]1ccc2ccccc2n1)NS(=O)(=O)[O-] [Compound A46]
pest or weed control at 1000 g/ha [1]: 100%
pest or weed control at 1000 g/ha [2]: 70%
pest or weed control at 1000 g/ha [3]: 70%
pest or weed control at 1000 g/ha [4]: 30%
pest or weed control at 1000 g/ha (Eleusine indica (ELEIN)): 90%
pest or weed control at 1000 g/ha [5]: 100%
pest or weed control at 1000 g/ha [6]: 70%
pest or weed control at 1000 g/ha (Lolium perenne (LOLPE)): 40%
pest or weed control at 1000 g/ha (Setaria faberi (SETFA)): 60%

N[C@H](CC[n+]1ccc2ccccc2n1)C(=O)O [Compound A12, [(1R)-1-carboxy-3-cinnolin-2-ium-2-yl-propyl]ammonium 2,2,2-trifluoroacetate]
pest or weed control at 1000 g/ha [1]: 80%
pest or weed control at 1000 g/ha [2]: 70%
pest or weed control at 1000 g/ha [3]: 80%
pest or weed control at 1000 g/ha [4]: 40%
pest or weed control at 1000 g/ha (Eleusine indica (ELEIN)): 90%
pest or weed control at 1000 g/ha [5]: 50%
pest or weed control at 1000 g/ha [6]: 60%
pest or weed control at 1000 g/ha (Lolium perenne (LOLPE)): 40%
pest or weed control at 1000 g/ha (Setaria faberi (SETFA)): 50%

CNC(=O)c1c[n+](CCC(=O)O)nc2ccccc12 [Compound A14]
pest or weed control at 500 g/ha [1]: 100%
pest or weed control at 500 g/ha [2]: 90%
pest or weed control at 500 g/ha [3]: 80%
pest or weed control at 500 g/ha [4]: 70%
pest or weed control at 500 g/ha (Eleusine indica (ELEIN)): 100%
pest or weed control at 500 g/ha [5]: 60%
pest or weed control at 500 g/ha [6]: 50%
pest or weed control at 500 g/ha (Lolium perenne (LOLPE)): 30%
pest or weed control at 500 g/ha (Setaria faberi (SETFA)): 80%

O=S(=O)(O)CC[n+]1cc(C2CC2)c2ccccc2n1 [Compound A79]
pest or weed control at 1000 g/ha [1]: 60%
pest or weed control at 1000 g/ha [2]: 30%
pest or weed control at 1000 g/ha [3]: 20%
pest or weed control at 1000 g/ha [4]: 20%
pest or weed control at 1000 g/ha (Eleusine indica (ELEIN)): 10%
pest or weed control at 1000 g/ha [5]: 40%
pest or weed control at 1000 g/ha [6]: 40%
pest or weed control at 1000 g/ha (Lolium perenne (LOLPE)): 10%
pest or weed control at 1000 g/ha (Setaria faberi (SETFA)): 30%

COC(=O)C[n+]1cc(C)c2cc(C)ccc2n1 [Compound A9]
pest or weed control at 1000 g/ha [1]: 10%
pest or weed control at 1000 g/ha [2]: 60%
pest or weed control at 1000 g/ha [3]: 40%
pest or weed control at 1000 g/ha [4]: 10%
pest or weed control at 1000 g/ha (Eleusine indica (ELEIN)): 70%
pest or weed control at 1000 g/ha [5]: 50%
pest or weed control at 1000 g/ha [6]: 20%
pest or weed control at 1000 g/ha (Lolium perenne (LOLPE)): 10%
pest or weed control at 1000 g/ha (Setaria faberi (SETFA)): 10%

CCOP(=O)(O)CC[n+]1ccc2ccccc2n1 [Compound A103]
pest or weed control at 500 g/ha [1]: 20%
pest or weed control at 500 g/ha [2]: 0%
pest or weed control at 500 g/ha [3]: 60%
pest or weed control at 500 g/ha [4]: 30%
pest or weed control at 500 g/ha (Eleusine indica (ELEIN)): 30%
pest or weed control at 500 g/ha [5]: 40%
pest or weed control at 500 g/ha [6]: 20%
pest or weed control at 500 g/ha (Lolium perenne (LOLPE)): 20%
pest or weed control at 500 g/ha (Setaria faberi (SETFA)): 60%

O=S(=O)(O)CC[n+]1ccc2cccc(I)c2n1 [Compound A42, 2-(8-iodocinnolin-2-ium-2-yl)ethanesulfonic acid 2,2,2-trifluoroacetate]
pest or weed control at 1000 g/ha [1]: 90%
pest or weed control at 1000 g/ha [2]: 50%
pest or weed control at 1000 g/ha [3]: 40%
pest or weed control at 1000 g/ha [4]: 20%
pest or weed control at 1000 g/ha (Eleusine indica (ELEIN)): 80%
pest or weed control at 1000 g/ha [5]: 50%
pest or weed control at 1000 g/ha [6]: 70%
pest or weed control at 1000 g/ha (Lolium perenne (LOLPE)): 10%
pest or weed control at 1000 g/ha (Setaria faberi (SETFA)): 50%

N#Cc1cccc2cc[n+](CCS(=O)(=O)[O-])nc12 [Compound A110, 2-(8-cyanocinnolin-2-ium-2-yl)ethanesulfonate]
pest or weed control at 500 g/ha [1]: 70%
pest or weed control at 500 g/ha [2]: 30%
pest or weed control at 500 g/ha [3]: 20%
pest or weed control at 500 g/ha [4]: 20%
pest or weed control at 500 g/ha (Eleusine indica (ELEIN)): 20%
pest or weed control at 500 g/ha [5]: 60%
pest or weed control at 500 g/ha [6]: 40%
pest or weed control at 500 g/ha (Lolium perenne (LOLPE)): 0%
pest or weed control at 500 g/ha (Setaria faberi (SETFA)): 20%

O=S(=O)([O-])CC[n+]1cc(-c2ccccc2)c2ccccc2n1 [Compound A51]
pest or weed control at 1000 g/ha [1]: 90%
pest or weed control at 1000 g/ha [2]: 30%
pest or weed control at 1000 g/ha [3]: 40%
pest or weed control at 1000 g/ha [4]: 20%
pest or weed control at 1000 g/ha (Eleusine indica (ELEIN)): 30%
pest or weed control at 1000 g/ha [5]: 60%
pest or weed control at 1000 g/ha [6]: 30%
pest or weed control at 1000 g/ha (Lolium perenne (LOLPE)): 10%
pest or weed control at 1000 g/ha (Setaria faberi (SETFA)): 30%

O=S(=O)([O-])CC[n+]1ccc2cccc(C(F)(F)F)c2n1 [Compound A95]
pest or weed control at 1000 g/ha [1]: 40%
pest or weed control at 1000 g/ha [2]: 50%
pest or weed control at 1000 g/ha [3]: 10%
pest or weed control at 1000 g/ha [4]: 10%
pest or weed control at 1000 g/ha (Eleusine indica (ELEIN)): 10%
pest or weed control at 1000 g/ha [5]: 50%
pest or weed control at 1000 g/ha [6]: 10%
pest or weed control at 1000 g/ha (Lolium perenne (LOLPE)): 0%
pest or weed control at 1000 g/ha (Setaria faberi (SETFA)): 10%

O=S(=O)([O-])CCC[n+]1cc(C(Cl)Cl)c2ccccc2n1 [Compound A39, 3-[4-(dichloromethyl)cinnolin-2-ium-2-yl]propane-1-sulfonate]
pest or weed control at 1000 g/ha [1]: 10%
pest or weed control at 1000 g/ha [2]: 20%
pest or weed control at 1000 g/ha [3]: 10%
pest or weed control at 1000 g/ha [4]: 10%
pest or weed control at 1000 g/ha (Eleusine indica (ELEIN)): 10%
pest or weed control at 1000 g/ha [5]: 40%
pest or weed control at 1000 g/ha [6]: 30%
pest or weed control at 1000 g/ha (Lolium perenne (LOLPE)): 0%
pest or weed control at 1000 g/ha (Setaria faberi (SETFA)): 0%
